SMILES strings stand for the structures. pIC50: −log10 of the molar value.

The target of one assay is T1, HDM2 (Homo sapiens, UniProt Q00987).
T1 construct: Thioredoxin (N); made in house; host or cells: E. coli strain BL21(DE3)Rosetta
T1 sequence (Q00987 17-125): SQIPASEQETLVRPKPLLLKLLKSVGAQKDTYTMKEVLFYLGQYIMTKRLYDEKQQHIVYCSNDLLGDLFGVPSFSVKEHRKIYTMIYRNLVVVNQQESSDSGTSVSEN
Description: HDM2 FRET assay (inhibition of binding of FITC labeled p53-pocket peptide to HDM2). As to conditions: 0.5 nM HDM2 (residues 17 to 125), 3nM peptide, two hour incubation at room temperature; read-out: FRET IC50. The method in brief:
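Compounds were tested in 10-point serial dilution against 0.5 nM recombinant HDM2 binding 3 nM fluorescein-labeled p53-pocket peptide. Detection used 0.25 nM terbium cryptate anti-6xHis antibody in PBS buffer containing 0.01% BSA and 0.01% Tween-20.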
Consider `C[C@@H](Nc1nc(-c2nnn(C)n2)nc2nc(N3CCOC[C@H]3c3ccccc3)n(C[C@H]3CC[C@H](C)CC3)c12)C1CCC1` [Example 12.11, N-[(1R)-1-cyclobutylethyl]-7-[(trans-4-methylcyclohexyl)methyl]-2-(2-methyl-2H-tetrazol-5-yl)-8-[(3R)-3-phenylmorpholin-4-yl]-7H-purin-6-amine], for which the negative logarithm of the IC50 (pIC50) was 7.49.

As for `C[C@H](Nc1nc2nc(-c3noc(=O)[nH]3)nc(-c3cccc(Cl)c3)c2n1C[C@H]1CC[C@H](C)CC1)c1cccc(F)c1` [Example 16.49, 3-{6-(3-chlorophenyl)-8-{[(1S)-1-(3-fluorophenyl)ethyl]amino}-7-[(trans-4-methylcyclohexyl)methyl]-7H-purin-2-yl}-1,2,4-oxadiazol-5(4H)-one], the pIC50 is 8.79.

Consider `COc1ncc(Cl)cc1-c1nc(-c2noc(=O)[nH]2)nc2nc(N3CCOC[C@H]3c3ccccc3)n(C[C@H]3CC[C@H](C)CC3)c12` [Example 16.156, 3-{6-(5-chloro-2-methoxypyridin-3-yl)-7-[(trans-4-methylcyclohexyl)methyl]-8-[(3R)-3-phenylmorpholin-4-yl]-7H-purin-2-yl}-1,2,4-oxadiazol-5(4H)-one], for which the pIC50 was 9.07.

For the compound `C[C@H]1CC[C@H](Cn2c(N3CCOC[C@H]3c3ccccc3)nc3nc(-c4n[nH]c(=O)o4)nc(-c4cncc(Cl)c4)c32)CC1` [Example 16.35, 5-{6-(5-chloropyridin-3-yl)-7-[(trans-4-methylcyclohexyl)methyl]-8-[(3R)-3-phenylmorpholin-4-yl]-7H-purin-2-yl} -1,3,4-oxadiazol-2(3H)-one], the pIC50 was 9.08.

As for `Cc1cccc(-c2nc3nc(C(=O)NS(C)(=O)=O)nc(N[C@H](C)C4CC4)c3n2Cc2ccc(C(F)(F)F)cc2)c1` [Example 12.25, 6-{[(1R)-1-cyclopropylethyl]amino}-8-(3-methylphenyl)-N-(methylsulfonyl)-7-[4-(trifluoromethyl)benzyl]-7H-purine-2-carboxamide], the pIC50 was 5.97.

In the case of `C[C@H]1CC[C@H](Cn2c(N3CCOC[C@H]3c3ccccc3)nc3nc(-c4noc(=O)[nH]4)nc(-c4cc(Cl)cnc4O)c32)CC1` [Example 16.162, 3-{6-(5-chloro-2-hydroxypyridin-3-yl)-7-[(trans-4-methylcyclohexyl)methyl]-8-[(3R)-3-phenylmorpholin-4-yl]-7H-purin-2-yl}-1,2,4-oxadiazol-5(4H)-one], the negative-log IC50 (pIC50) is 9.07.

As for `C[C@H]1CC[C@H](Cn2c(N3CCOC[C@H]3c3ccccc3)nc3nc(-c4noc(=O)[nH]4)nc(-c4cccc(Cl)c4F)c32)CC1` [Example 16.23, 3-{6-(3-chloro-2-fluorophenyl)-7-[(trans-4-methylcyclohexyl)methyl]-8-[(3R)-3-phenylmorpholin-4-yl]-7H-purin-2-yl}-1,2,4-oxadiazol-5(4H)-one], the pIC50 was 8.84.

As for `CC[C@H](Nc1nc2nc(-c3noc(=O)[nH]3)nc(-c3cccc(Cl)c3)c2n1C[C@H]1CC[C@H](C)CC1)c1ccccc1` [Example 16.50, 3-[6-(3-chlorophenyl)-7-[(trans-4-methylcyclohexyl)methyl]-8-{[(1S)-1-phenylpropyl]amino} -7H-purin-2-yl]-1,2,4-oxadiazol-5(4H)-one], the pIC50 is 8.57.

`C[C@@H]1CNCCN1c1nc2nc(-c3noc(=O)[nH]3)nc(-c3cccc(Cl)c3)c2n1C[C@H]1CC[C@H](C)CC1` [Example 16.54, 3-{6-(3-chlorophenyl)-7-[(trans-4-methylcyclohexyl)methyl]-8-[(2R)-2-methylpiperazin-1-yl]-7H-purin-2-yl}-1,2,4-oxadiazol-5(4H)-one]: the pIC50 is 7.23.

Consider `C[C@@H](Nc1nc(-c2nc(=O)n(C)[nH]2)nc2nc(N3CCOC[C@H]3c3ccccc3)n(C[C@H]3CC[C@H](C)CC3)c12)C1CCC1` [Example 12.19, 5-(6-{[(1R)-1-cyclobutylethyl]amino}-7-[(trans-4-methylcyclohexyl)methyl]-8-[(3R)-3-phenylmorpholin-4-yl]-7H-purine-2-yl)-2-methyl-2,4-dihydro-3H-1,2,4-triazol-3-one], for which the negative-log IC50 (pIC50) was 8.79.

The assay is the same for the next values; noted with them: Table 6; read-out: FRET IC50.
Take `Cc1cccc(-c2nc3nc(C(=O)O)nc(N[C@@H](C)C(C)C)c3n2Cc2ccc(C(F)(F)F)cc2)c1` [Example 6.49, 6-{[(1S)-1,2-dimethylpropyl]amino}-8-(3-methylphenyl)-7-[4-(trifluoromethyl)benzyl]-7H-purine-2-carboxylic acid]: the negative logarithm of the IC50 (pIC50) is 6.21.

The same assay, now with this note: Table 9; read-out: FRET IC50.
`Cc1noc(C2CCCCN2c2nc3nc(-c4noc(=O)[nH]4)nc(N[C@H](C)C4CCC4)c3n2Cc2ccc(C(F)(F)F)cc2)n1` (stereo partly drawn) [Example 9.107, 3-(6-{[(1R)-1-cyclobutylethyl]amino}-8-[2-(3-methyl-1,2,4-oxadiazol-5-yl)piperidin-1-yl]-7-[4-(trifluoromethyl)benzyl]-7H-purin-2-yl)-1,2,4-oxadiazol-5(4H)-one]: the pIC50 is 8.29.

For the compound `C[C@@H](Nc1nc(C(=O)O)nc2nc(NCc3ccccc3)n(Cc3ccc(C(F)(F)F)cc3)c12)C1CCC1` [Example 9.13, 8-(benzylamino)-6-{[(1R)-1-cyclobutylethyl]amino}-7-[4-(trifluoromethyl)benzyl]-7H-purine-2-carboxylic acid], the pIC50 is 8.51.

In the case of `C[C@@H](Nc1nc(C(=O)O)nc2nc(N3CCCC[C@H]3c3ccccc3)n(Cc3ccc(C(F)(F)F)cc3)c12)C1CCC1` [Example 9.63, 6-{[(1R)-1-cyclobutylethyl]amino}-8-[(2S)-2-phenylpiperidin-1-yl]-7-[4-(trifluoromethyl)benzyl]-7H-purine-2-carboxylic acid], the negative-log IC50 (pIC50) is 8.51.

Consider `CC(Nc1nc2nc(C(=O)O)nc(N[C@H](C)C3CCC3)c2n1Cc1ccc(C(F)(F)F)cc1)c1ccccn1` (stereo partly drawn) [Example 9.31, 6-{[(1R)-1-cyclobutylethyl]amino}-8-[(1-pyridin-2-ylethyl)amino]-7-[4-(trifluoromethyl)benzyl]-7H-purine-2-carboxylic acid], for which the pIC50 was 9.28.

The assay is the same for the next values; noted with them: Table 11; read-out: FRET IC50.
Consider `CC(C)CC1COCCN1c1nc2nc(-c3noc(=O)[nH]3)nc(N[C@H](C)C3CCC3)c2n1C[C@H]1CC[C@H](C)CC1` (stereo partly drawn) [Example 11.41, 3-(6-{[(1R)-1-cyclobutylethyl]amino}-7-[(trans-4-methylcyclohexyl)methyl]-8-[3-(2-methylpropyl)morpholin-4-yl]-7H-purin-2-yl)-1,2,4-oxadiazol-5(2H)-one], for which the pIC50 was 7.83.

Turning to `COC1CCN(c2nc3nc(-c4noc(=O)[nH]4)nc(N[C@H](C)C4CCC4)c3n2C[C@H]2CC[C@H](C)CC2)C1` (stereo partly drawn) [Example 11.114, 3-(6-{[(1R)-1-cyclobutylethyl]amino}-8-(3-methoxypyrrolidin-1-yl)-7-[(trans-4-methylcyclohexyl)methyl]-7H-purin-2-yl)-1,2,4-oxadiazol-5(2H)-one], the negative-log IC50 (pIC50) is 7.28.

Turning to `C[C@@H](Nc1nc(-c2noc(=O)[nH]2)nc2nc(N3CCOC4CCCC43)n(C[C@H]3CC[C@H](C)CC3)c12)C1CCC1` (single isomer, unassigned) [Example 11.131], the pIC50 is 8.15.

In the case of `C[C@@H]1CCCCN1c1nc2nc(-c3nc(=O)o[nH]3)nc(N[C@H](C)C3CCC3)c2n1C[C@H]1CC[C@H](C)CC1` (single isomer, unassigned) [Example 11.58], the pIC50 is 8.27.

Turning to `C[C@H]1CC[C@H](Cn2c(N3CCOC[C@H]3c3ccccc3)nc3nc(-c4noc(=O)[nH]4)nc(N4CC[C@@H]4C4CCC4)c32)CC1` [Example 11.9, 3-(6-((R)-2-Cyclobutylazetidin-1-yl)-7-((trans-4-methylcyclohexyl)methyl)-8-((R)-3-phenylmorpholino)-7H-purin-2-yl)-1,2,4-oxadiazol-5(4H)-one], the pIC50 is 7.56.

Staying with this assay, now noted: Table 18; read-out: FRET IC50.
`CC[C@H]1CC[C@H](Cn2c(N3CCCCC3)nc3nc(C(=O)O)nc(N[C@H](C)C4CCC4)c32)CC1` [Example 18.18, 6-{[(1R)-1-cyclobutylethyl]amino}-7-[(trans-4-ethylcyclohexyl)methyl]-8-piperidin-1-yl-7H-purine-2-carboxylic acid]: the pIC50 is 8.07.

The assay is the same for the next values; noted with them: Table 22; read-out: FRET IC50.
As for `C=C(c1nc2nc(-c3noc(=O)[nH]3)nc(N[C@H](C)C3CCC3)c2n1C[C@H]1CC[C@H](C)CC1)C(C)(C)C` [Example 22.11, 3-(6-{[(1R)-1-cyclobutylethyl]amino}-8-(2,2-dimethyl-1-methylidenepropyl)-7-[(trans-4-methylcyclohexyl)methyl]-7H-purin-2-yl)-1,2,4-oxadiazol-5(4H)-one], the negative logarithm of the IC50 (pIC50) was 8.24.

As to `C=C(c1nc2nc(-c3noc(=O)[nH]3)nc(N[C@H](C)C3CCC3)c2n1C[C@H]1CC[C@H](C)CC1)C1CCOCC1` [Example 22.42, 3-(6-{[(1R)-1-cyclobutylethyl]amino}-7-[(trans-4-methylcyclohexyl)methyl] -8-[1-(tetrahydro-2H-pyran-4-yl)ethenyl]-7H-purin-2-yl)-1,2,4-oxadiazol-5(4H)-one], the negative-log IC50 (pIC50) was 8.30.

Still in this assay, the particulars now being: Table 23; read-out: FRET IC50.
Take `C[C@H]1CC[C@H](Cn2c(C(O)C3CCOCC3)nc3nc(-c4noc(=O)[nH]4)nc(-c4cccc(Cl)c4)c32)CC1` (mixture of isomers) [Example 23.2, 3-{6-(3-chlorophenyl)-8-[hydroxy(tetrahydro-2H-pyran-4-yl)methyl]-7-[(trans-4-methylcyclohexyl)methyl]-7H-purin-2-yl}-1,2,4-oxadiazol-5(4H)-one]: the pIC50 is 7.29.

Staying with this assay, now noted: read-out: % inh. at 1000 nM; at 1000 nM compound.
Regarding `C[C@@H](Nc1nc(S(C)(=O)=O)nc2nc(N3CCCCC3c3ccccc3)n(C[C@H]3CC[C@H](C)CC3)c12)C1CCC1` (single isomer, unassigned) [Example 14.9], the inhibition at 1 µM was determined as 46%.

Values taken from patent EP2951180B1, “2,6,7,8 SUBSTITUTED PURINES AS HDM2 INHIBITORS” (Merck Sharp & Dohme Corp., priority 2013, dated 2014).
